Patent US20190159449A1, “USE OF NON-PROLINE CYCLIC AMINO ACIDS TO INCREASE THE TOLERANCE OF PLANTS TO CONDITIONS OF OSMOTIC STRESS” (CONSEJO SUPERIOR DE INVESTIGACIONES CIENTÍFICAS (CSIC), priority 2016, published 2019)
Marks after values point to notes of the source that are not given here.

What was measured:
Assay type in all cases: in vivo
[1] = tested on: Arabidopsis thaliana; assay: Salt stress (50 mM NaCl) growth assay of hydroponically grown Arabidopsis thaliana after 24 h root treatment; conditions: for Fresh weight / RGR (relative growth rate) / S.I (sensitivity index) / % reduction RGR: 2.5 mM treatment 24 h; for Fresh weight: aerial part; for Effect on growth and tolerance to salt stress (in words): 2.5 mM treatment, 50 mM NaCl; for S.I (sensitivity index) / % reduction RGR: 7 days with 50 mM NaCl; for S.I (sensitivity index): S.I = DWs − DWc/DWc; for % reduction RGR: relative to control conditions
Experimental: The conditions described below were used as the base for all examples included below. The growing conditions, such as the nutrient solution and the substrate used have been optimized to perform this type of experiments. Likewise, the dose of NaCl used has been optimized for this type of experiments since 50 mM makes it possible to evaluate if a treatment is capable of increasing tolerance to salinity (Jiménez-Arias et al., 2015. Environmental and Experimental Botany 120, 23-30).
A hydroponic culture system was used for the cultivation of the Arabidopsis thaliana plants necessary for the assays. This system was established in hydroponics trays with 1.9 L capacity (Araponics®) wherein 18 plants were grown per container. A mixture of river sand with two different granulometries was used as physical substrate. The seeds were sowed in seed-holders, which were deposited during one week in a small greenhouse consisting of a high-density polyethylene tray with river sand (washed siliceous sand, with medium granulometry) with sterile distilled water covered with a transparent plastic sheet which was deposited in a growth chamber at 22±2° C., with a photoperiod of 16 hours of light (100-110 μmol m-2 s-1 of PAR) and with 100% relative humidity. After one week, the seed-holders with the seedlings were transferred to the hydroponics trays in the same photoperiod and light intensity conditions but with 60-70% of relative humidity. The seedlings were maintained without aeration during the first week, after this the solution (Table 1) was generously aerated using aeration pumps and was renewed every 7 days.
(§1) In this way, 21-day old plants were treated during 24 hours in nutrient solution enriched with a concentration of 2.5 mM of alanine. Subsequently, the plants were deposited in normal nutrient solution for 24 hours and they later grew for 7 days in nutrient solution with or without a supply of 50 mM of NaCl. This experiment was repeated twice, using 12 plants per experiment, with the value shown in table 2 being the average of 24 plants for each one of the conditions.
Subsequently, the wet weight of the aerial part of the plants was determined.
as §1, with “21-day” for “In this way, 21-day”, “pyroglutamic acid or pipecolinic acid.” for “alanine.”
The plants were deposited in nutrient solution enriched with one of the compounds indicated above for 24 hours and they later grew for 7 days in nutrient solution with a supply of 50 mM of NaCl. As control, the plants grown on nutrient solution and NaCl were used. This experiment was repeated twice, using 12 plants per experiment, with the value shown in table 2 being the average of 24 plants for each one of the conditions.
Two measurements were used in order to illustrate the defence to salt stress. First, the values for the sensitivity index (S.I) described by Saadallah et al. (2001, Agronomie 21, 627-634) is shown.
The greater the negative value of the S.I., the greater the negative effect of salinity on the plant. The second measurement is a percentage of reduction in the relative a growth rate of the plant subjected to conditions of salt stress.

[2] = tested on: Solanum lycopersicum (tomato); assay: Salt stress growth assay of hydroponic tomato plants after 24 h root treatment; conditions: 2.5 mM; for Decrease in growth in saline conditions with respect to growth in the control solution: 7 days in NaCl solution, fresh weight; for Increase in tolerance compared with the proline treatment / Increase in tolerance compared with the control: saline conditions; for Increase in tolerance compared with the proline treatment: versus proline 2.5 mM; for Increase in tolerance compared with the control: versus reference group
Experimental: As an example, tomato (Solanum lycopersicum) of the variety Realeza pear was used. […] From the first day, the solution was generously aerated by air pumps (30 min per day). The plants were maintained during two days with this proportion of solution and distilled water, and then they were removed from the medium and placed, under the same conditions, in plastic containers during 24 hours with the different treatments in distilled water (table 5): After 24 hours, the plants were again introduced in the trays with the same proportion of distilled water/nutrient solution stated above and they were maintained like this for 48 hours. […] Then, the growth of treated and untreated plants was compared, in normal conditions and salinity conditions. For the statistical analysis, the data collected was subjected to the normality test of the Kolmogorov-Smirnov test with the Lilliefors correction. Levene's test was used to verify the homoscedasticity of the data. As the data behaved following a normal distribution, its measurements were compared by one-way ANOVA and the significant differences were calculated using the Bonferroni post hoc test. The statistical analyses were performed with the SSPS computer package, version 20 for Windows.

[3] = tested on: Solanum lycopersicum (tomato); assay: Drought (water deficit) assay of tomato in greenhouse conditions; conditions: four root treatments at 2.5 mM, after 10 days of drought; for Net photosynthesis: versus drought reference
Experimental: The crop used was tomato (Solanum lycopersicum) of the “Gransol” capa negra variety. The experiment was performed in a glass greenhouse with four tables measuring 10 metres in length by 2 metres in width. Drip irrigation was used, supplied by self-compensated drippers to control the flow of water at all times.
5-week old seedings were transplanted to 2-litre capacity pots using a mixture of peat and river sand to facilitate drainage. In total, 120 tomato plants were used. Four treatments were performed on 40 plants after the transplant (with 15 days between each treatment), adding 50 ml of a 2.5 mM concentration of Pyroglutamic to each pot.
Another 40 plants were treated via root applications using 2.5 mM of pipecolinic acid. The remaining plants randomly distributed throughout the greenhouse were treated with distilled water by way of control. The drought assay commenced on completing the four treatments, which was performed by removing the dripper from the 20 plants randomly chosen for each one of the treatments. The plants were deprived of water for 10 days.
The relative water content of the leaf was estimated after 10 days of drought for each one of the treatments, in control conditions and drought conditions, using 15 leaves. The following formula was used for this:
R.W.C(%)/=[(Fw−Dw)/(Tw−Dw)]×100
With Fw: fresh weight; Dw: dry weight; Tw: turgor weight. RWC is the measurement most commonly used to estimate the possible water deficit a plant leaf has.
Furthermore, photosynthesis was estimated with the “Lc-pro sd” system (ADC Bioscientific). To do this, the tomato leaves were stimulated with a light source at 1000 μmol m-2 s-1, with this light intensity being previously estimated to achieve the maximum photosynthesis in our crop and conditions. To do this, the parameters of net photosynthesis (A) and evapotranspiration (E) were determined, calculating with them the efficiency in water use (A/E) as described by Lambers et al. (2008. Plant Physiological Ecology. 2nd edition. Springer, New York). The measurements were taken after 10 days of assay from six plants for each one of the treatments.
The data of the different variables were subjected to the normality test using the Kolmogorov-Smirnov test with the Lilliefors correction. Levene's test was used to verify the homoscedasticity of the data. As the data behaved following a normal distribution, its measurements were compared by one-way ANOVA and the significant differences were calculated using the Bonferroni post hoc test. The statistical analyses were performed with the SSPS computer package, version 20 for Windows.

[4] = 7 days in nutrient solution with 50 mM NaCl (saline conditions)
[5] = 7 days in nutrient solution without NaCl (optimal conditions)
[6] = 7 days with 50 mM NaCl (saline conditions)
[7] = 7 days without NaCl (optimal conditions)

SMILES: C[C@H](N)C(=O)O [Alanine, alanine, reference compound]
- Fresh weight [1, 4]: 36 ± 2 mg plant
- Fresh weight [1, 5]: 142 ± 8 mg plant
- RGR (relative growth rate) [1, 6]: 0.11**
- RGR (relative growth rate) [1, 7]: 0.58
- Effect on growth and tolerance to salt stress (in words) [1]: not capable of promoting growth, nor increasing tolerance to salinity

SMILES: O=C(O)[C@@H]1C[C@@H](O)CN1 [Hydroxyproline, hydroxyproline, reference compound]
- S.I (sensitivity index) [1]: −0.25**
- % reduction RGR [1]: 24.34** %
- Decrease in growth in saline conditions with respect to growth in the control solution [2]: 17%
- Decrease in growth under control conditions with respect to the reference ([2]; 7 days, control solution without salt, plant weight): 35%

SMILES: O=C(O)C1CCCCN1 (stereo not shown) [Pipecolinic acid, pipecolinic acid]
- Decrease in relative water content of the leaf with respect to its control [3]: 5.1%
- Net photosynthesis [3]: greater than the drought reference plants
- Fresh weight [1, 4]: 133.9 ± 21 mg plant
- Fresh weight [1, 5]: 145.9 ± 22 mg plant
- RGR (relative growth rate) [1, 6]: 0.45
- S.I (sensitivity index) [1]: −0.07**
- % reduction RGR [1]: 8.12** %
- RGR (relative growth rate) [1, 7]: 0.46
- Effect on growth and tolerance to salt stress (in words) [1]: effect on the increased tolerance to salt stress is proven
- Decrease in growth in saline conditions with respect to growth in the control solution [2]: 7%
- Increase in tolerance compared with the proline treatment [2]: 83%
- Increase in tolerance compared with the control [2]: 78%

SMILES: O=C(O)[C@@H]1CCCN1 [Proline, proline]
- Decrease in growth in saline conditions with respect to growth in the control solution [2]: 42%

SMILES: O=C1CC[C@@H](C(=O)O)N1 [Pyroglutamic acid, pyroglutamic acid]
- Decrease in relative water content of the leaf with respect to its control [3]: did not show this decrease
- Net photosynthesis [3]: greater than the drought reference plants
- Fresh weight [1, 4]: 170.4 ± 15 mg plant
- Fresh weight [1, 5]: 183.9 ± 15 mg plant
- RGR (relative growth rate) [1, 6]: 0.49
- S.I (sensitivity index) [1]: −0.1**
- % reduction RGR [1]: 10.22** %
- RGR (relative growth rate) [1, 7]: 0.56
- Effect on growth and tolerance to salt stress (in words) [1]: effect on the increased tolerance to salt stress is proven
- Decrease in growth in saline conditions with respect to growth in the control solution [2]: 9%
- Increase in tolerance compared with the proline treatment [2]: 78%
- Increase in tolerance compared with the control [2]: 72%
